Results: PubChem BioAssay (NCI)
Converted amounts (≈) assume the structure as drawn.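 Five concentrations, 48 hours, 96-well plates. The concentration for 50% growth inhibition is given as GI50. Definition used: TGI = concentration required for complete inhibition of growth.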

Tests used:
Assay in all cases: growth of human tumour cells (NCI), 48 h
SNB-75 CNS = system: SNB-75 CNS
COLO 205 colon = system: COLO 205 colon
DU-145 prostate = system: DU-145 prostate
SN12C renal = system: SN12C renal
LOX IMVI melanoma = system: LOX IMVI melanoma
UO-31 renal = system: UO-31 renal
T-47D breast = system: T-47D breast
MOLT-4 leukemia = system: MOLT-4 leukemia
SR leukemia = system: SR leukemia
NCI-H522 lung = system: NCI-H522 lung

COc1cc(/C=C2/N=C(c3ccccc3)N(C3=NNC4(C(=O)N3)c3ccccc3-c3ccccc34)NC2=O)ccc1O
GI50 (SNB-75 CNS): 23.4 mg/L (≈ 42.1 µM) | TGI (SNB-75 CNS): 45.8 mg/L | GI50 (COLO 205 colon): 55.2 mg/L (≈ 99.2 µM) | TGI (COLO 205 colon): > 150 mg/L | GI50 (DU-145 prostate): 31.3 mg/L (≈ 56.3 µM) | TGI (DU-145 prostate): 63.6 mg/L | GI50 (SN12C renal): 25.6 mg/L (≈ 46 µM) | TGI (SN12C renal): 56.8 mg/L | GI50 (LOX IMVI melanoma): 32.3 mg/L (≈ 58 µM) | TGI (LOX IMVI melanoma): 66.8 mg/L | GI50 (UO-31 renal): 33.4 mg/L (≈ 60 µM) | TGI (UO-31 renal): 111 mg/L | GI50 (T-47D breast): 17 mg/L (≈ 30.6 µM) | TGI (T-47D breast): 65 mg/L | GI50 (MOLT-4 leukemia): 35.7 mg/L (≈ 64.1 µM) | TGI (MOLT-4 leukemia): 123 mg/L | GI50 (SR leukemia): 48.3 mg/L (≈ 86.8 µM) | TGI (SR leukemia): > 150 mg/L

CC(=O)O[C@H]1C(=O)[C@@]2(C)[C@H]([C@H](OC(=O)c3ccccc3)[C@]3(O)C[C@H](OC(=O)[C@H](O)[C@@H](NC(=O)CC(C)(C)C)c4ccccc4)C(C)=C1C3(C)C)C1(OC(C)=O)CO[C@@H]1C[C@@H]2O (stereo partly drawn)
TGI (SNB-75 CNS): 0.0154 µM | TGI (COLO 205 colon): 0.012 µM | TGI (DU-145 prostate): 0.0833 µM | TGI (SN12C renal): > 10 µM | TGI (LOX IMVI melanoma): > 10 µM | TGI (UO-31 renal): > 10 µM | TGI (T-47D breast): > 10 µM | TGI (MOLT-4 leukemia): > 3.96 µM

COc1cc2c(cc1OC)-c1c3c(cc4c1[C@@H](C2)N(C)CC4)OCO3
TGI (SNB-75 CNS): 23.9 µM | TGI (COLO 205 colon): 32.1 µM | TGI (NCI-H522 lung): 21.1 µM | TGI (SN12C renal): 39 µM | TGI (LOX IMVI melanoma): 75 µM | TGI (UO-31 renal): 49.3 µM | TGI (MOLT-4 leukemia): 12 µM

Cn1nc(S(N)(=O)=O)s/c1=N/C(N)=S
TGI (COLO 205 colon): > 100 µM | TGI (DU-145 prostate): > 100 µM | TGI (NCI-H522 lung): > 100 µM | TGI (SN12C renal): > 100 µM | TGI (LOX IMVI melanoma): > 100 µM | TGI (UO-31 renal): > 100 µM | TGI (T-47D breast): > 100 µM | TGI (MOLT-4 leukemia): > 100 µM | TGI (SR leukemia): > 100 µM

C[n+]1c2ccccc2c(C(=O)Nc2ccc(S(=O)(=O)N=C(N)N)cc2)c2ccccc21
TGI (SNB-75 CNS): > 100 µM | TGI (COLO 205 colon): > 100 µM | TGI (DU-145 prostate): > 100 µM | TGI (NCI-H522 lung): > 100 µM | TGI (SN12C renal): > 100 µM | TGI (LOX IMVI melanoma): > 100 µM | TGI (UO-31 renal): > 100 µM | TGI (T-47D breast): > 100 µM | TGI (MOLT-4 leukemia): > 100 µM

Cc1c(NC2(C)C(=O)N(/N=C/c3ccccc3)N=C2c2ccccc2)n[nH]c1-c1ccccc1 (stereo not drawn)
TGI (SNB-75 CNS): > 100 µM | TGI (COLO 205 colon): > 100 µM | TGI (DU-145 prostate): > 100 µM | TGI (NCI-H522 lung): > 100 µM | TGI (SN12C renal): > 100 µM | TGI (LOX IMVI melanoma): > 100 µM | TGI (UO-31 renal): > 100 µM | TGI (T-47D breast): > 100 µM | TGI (MOLT-4 leukemia): > 100 µM

O=C(CNc1ccc(Cl)cc1Cl)NC1C=Cc2ccc(S(=O)(=O)Nc3ccc(Cl)cc3Cl)cc2C1=O (stereo not drawn)
TGI (SNB-75 CNS): > 100 µM | TGI (COLO 205 colon): > 100 µM | TGI (DU-145 prostate): > 100 µM | TGI (NCI-H522 lung): > 100 µM | TGI (SN12C renal): > 100 µM | TGI (LOX IMVI melanoma): > 100 µM | TGI (UO-31 renal): > 100 µM | TGI (MOLT-4 leukemia): > 100 µM | TGI (SR leukemia): > 100 µM

Cc1ccc(N=Nc2c(C)c(C#N)c(=S)n(C3OC(CO)C(O)C(O)C3O)c2-c2ccccc2)cc1 (stereo not drawn)
TGI (SNB-75 CNS): 55.2 µM | TGI (COLO 205 colon): 57.4 µM | TGI (DU-145 prostate): > 100 µM | TGI (SN12C renal): > 100 µM | TGI (LOX IMVI melanoma): 31.2 µM | TGI (UO-31 renal): 86.9 µM | TGI (T-47D breast): 57.2 µM | TGI (MOLT-4 leukemia): 38.9 µM

O=C1C(Br)=C(c2ccccc2)S(=O)c2ccccc21 (stereo not drawn)
TGI (SNB-75 CNS): 31.1 µM | TGI (COLO 205 colon): 3.95 µM | TGI (DU-145 prostate): 27.9 µM | TGI (NCI-H522 lung): 3.35 µM | TGI (SN12C renal): 31 µM | TGI (LOX IMVI melanoma): 28.2 µM | TGI (UO-31 renal): 27.2 µM | TGI (T-47D breast): 10.6 µM

COC(=O)[C@@]12CCCC(=O)[C@@H]1[C@H]1CCCC[C@H]12
TGI (SNB-75 CNS): > 100 µM | TGI (COLO 205 colon): > 100 µM | TGI (DU-145 prostate): > 100 µM | TGI (NCI-H522 lung): > 100 µM | TGI (SN12C renal): > 100 µM | TGI (LOX IMVI melanoma): > 100 µM | TGI (UO-31 renal): > 100 µM | TGI (MOLT-4 leukemia): > 100 µM | TGI (SR leukemia): > 100 µM

COc1c2cc(C(C)(C)C)cc1Cc1cccc(c1O)Cc1cc(C(C)(C)C)cc(c1OC)Cc1cccc(c1O)Cc1cc(C(C)(C)C)cc(c1OC)Cc1cccc(c1O)C2
TGI (SNB-75 CNS): > 100 µM | TGI (COLO 205 colon): > 100 µM | TGI (DU-145 prostate): > 100 µM | TGI (NCI-H522 lung): > 100 µM | TGI (SN12C renal): > 100 µM | TGI (UO-31 renal): > 100 µM | TGI (T-47D breast): > 100 µM | TGI (MOLT-4 leukemia): > 100 µM | TGI (SR leukemia): > 100 µM
